{
  "source": "patent US11905231B1",
  "about": "“Solid forms, salts and polymorphs of anti-fibrotic compounds” (Certa Therapeutics Pty Ltd, priority 2023, dated 2024)",
  "key": {"[1]": {"assay": "Oral pharmacokinetic study in Sprague-Dawley rats", "settings": "rat, single oral dose 20 mg/kg; for AUCExtr / AUClast / Cmax / t1/2 / tmax / AUCInf: plasma; for AUClast / Cmax / t1/2 / tmax: mean; for AUCInf: extrapolated area under the curve; for F (fraction absorbed, bioavailability): based on AUCInf", "method": "Bioavailability is determined by the equation AUC=F·D/CLT, wherein AUC is the area under the plot of plasma concentration, F is the absolute bioavailability, D is the dose, and CLT is the total clearance.\nThe rats received a single oral dose of 20 mg/kg body weight (b.w.). The doses were prepared as a 2.0 mg/mL suspension in a vehicle of 20 mM Na2HPO4 buffer containing 5% (v/v) DMSO, 0.4% (v/v) 1M NaOH and 0.4% (v/v) Tween 80 and a dose volume of 10 mL/kg b.w.\nPharmacokinetic analysis was performed on the average plasma concentration for each time point."}, "[2]": {"assay": "Thermogravimetric Analysis (TGA) weight loss", "assay_type": "physicochemical", "settings": "for Total weight loss by TGA: from r.t. to 350° C. (or to decomposition if lower); for Weight loss (TGA): when heated from about 25° C. to about 120° C."}, "[3]": {"assay": "Dynamic Vapor Sorption (DVS) hygroscopicity", "settings": "at 80% RH, 25° C., measured during 0% RH to 95% RH increase", "excerpt": "The change in water content is recited as a % change in mass of the starting sample and all such water sorption (DVS) values recited herein will be understood to explicitly include numerical values within a +/−0.2% variance.\nThe humidity is held constant at 30% RH until the mass change of the sample reaches equilibrium, as determined by the rate of change of weight being 0.01%/minute or less. The humidity is then changed to the next step value and the consequent mass change measured, and so on.\nThe hygroscopicity values recited herein refer to total water gain since the start of the experiment only and so may not necessarily be equivalent to the actual total water content of the sample."}},
  "data": [
    {"smiles": "C#CCOc1ccc(/C=C/C(=O)Nc2ccccc2C(=O)O)cc1OC.N", "note": "[Ammonium salt]", "values": [
      {"measurement": "Maximum plasma concentration (Cmax) compared to the other tested compounds", "setting": "[1]", "result": "highest maximum plasma concentration"},
      {"measurement": "Mean concentration (plasma)", "setting": "[1]; 0.5 h post dose", "result": 32700, "unit": "ng/mL"},
      {"measurement": "Mean concentration (plasma)", "setting": "[1]; 1 h post dose", "result": 44033, "unit": "ng/mL"},
      {"measurement": "Mean concentration (plasma)", "setting": "[1]; 2 h post dose", "result": 35033, "unit": "ng/mL"},
      {"measurement": "Mean concentration (plasma)", "setting": "[1]; 4 h post dose", "result": 20833, "unit": "ng/mL"},
      {"measurement": "Mean concentration (plasma)", "setting": "[1]; 8 h post dose", "result": 14400, "unit": "ng/mL"},
      {"measurement": "Mean concentration (plasma)", "setting": "[1]; 24 h post dose", "result": 575, "unit": "ng/mL"},
      {"measurement": "AUCExtr", "setting": "[1]", "result": 0.932, "unit": "%"},
      {"measurement": "AUClast", "setting": "[1]", "result": 313.832, "unit": "µg·h/mL"},
      {"measurement": "Cmax", "setting": "[1]", "result": 44033, "unit": "ng/mL"},
      {"measurement": "t1/2", "setting": "[1]", "result": 3.62, "unit": "h"},
      {"measurement": "tmax", "setting": "[1]", "result": 1.00, "unit": "h"},
      {"measurement": "AUCInf", "setting": "[1]", "result": 317.034, "unit": "µg·h/mL"},
      {"measurement": "F (fraction absorbed, bioavailability)", "setting": "[1]", "result": 64, "unit": "%"},
      {"measurement": "Weight loss by TGA", "setting": "[2]; from 0° C. to 100° C.", "result": 7.07, "unit": "% from 0 °C to"},
      {"measurement": "Weight loss by TGA", "setting": "[2]; from 100° C. to 170° C.", "result": 4.48, "unit": "% from 100 °C to"},
      {"measurement": "Weight loss by TGA", "setting": "[2]; from r.t. to 120° C.", "result": 8.94, "unit": "% from r.t. to"},
      {"measurement": "Total weight loss by TGA", "setting": "[2]", "result": 11.55, "unit": "% total weight"}
    ]},
    {"smiles": "C#CCOc1ccc(/C=C/C(=O)Nc2ccccc2C(=O)O)cc1OC.CC(C)(C)N", "note": "[tert-Butylamine (TBA) salt]", "values": [
      {"measurement": "Hygroscopicity by DVS", "setting": "[3]", "result": 1.07, "unit": "%"},
      {"measurement": "Hygroscopicity by DVS", "setting": "[3]; listed as tert-butylamine (TBA)", "result": 1.07, "unit": "%"},
      {"measurement": "Hygroscopicity by DVS", "setting": "[3]; listed as tert-butylamine salt", "result": "about 1.07%"},
      {"measurement": "Mean concentration (plasma)", "setting": "[1]; 0.5 h post dose", "result": 18080, "unit": "ng/mL"},
      {"measurement": "Mean concentration (plasma)", "setting": "[1]; 1 h post dose", "result": 26967, "unit": "ng/mL"},
      {"measurement": "Mean concentration (plasma)", "setting": "[1]; 2 h post dose", "result": 29167, "unit": "ng/mL"},
      {"measurement": "Mean concentration (plasma)", "setting": "[1]; 4 h post dose", "result": 17133, "unit": "ng/mL"},
      {"measurement": "Mean concentration (plasma)", "setting": "[1]; 8 h post dose", "result": 15433, "unit": "ng/mL"},
      {"measurement": "Mean concentration (plasma)", "setting": "[1]; 24 h post dose", "result": 918, "unit": "ng/mL"},
      {"measurement": "AUCExtr", "setting": "[1]", "result": 1.83, "unit": "%"},
      {"measurement": "AUClast", "setting": "[1]", "result": 287.306, "unit": "µg·h/mL"},
      {"measurement": "Cmax", "setting": "[1]", "result": 32000, "unit": "ng/mL"},
      {"measurement": "t1/2", "setting": "[1]", "result": 4.18, "unit": "h"},
      {"measurement": "tmax", "setting": "[1]", "result": 1.67, "unit": "h"},
      {"measurement": "AUCInf", "setting": "[1]", "result": 292.817, "unit": "µg·h/mL"},
      {"measurement": "F (fraction absorbed, bioavailability)", "setting": "[1]", "result": 59, "unit": "%"},
      {"measurement": "Weight loss by TGA", "setting": "[2]; from 25° C. to 120° C.", "result": 0.94, "unit": "% from 25 °C to"},
      {"measurement": "Weight loss by TGA", "setting": "[2]; from 120° C. to 190° C.", "result": 6.91, "unit": "% from 120 °C to"},
      {"measurement": "Weight loss by TGA", "setting": "[2]; from r.t. to 120° C.", "result": 0.94, "unit": "% from r.t. to"},
      {"measurement": "Total weight loss by TGA", "setting": "[2]", "result": 7.85, "unit": "% total weight"},
      {"measurement": "Weight loss (TGA)", "setting": "[2]", "result": 0.94, "unit": "%"},
      {"measurement": "Weight loss (TGA)", "setting": "[2]; listed as tert-butylamine salt", "result": "about 0.94%"}
    ]}
  ]
}
